Data from BindingDB's records for patent US20240343720 (Xizang Haisco Pharmaceutical, 2024).

Biological target: AP2-associated protein kinase 1 (Homo sapiens, UniProt Q2M2I8)
Test: In Vitro AAK1 Enzyme Activity Assay
Protocol: Compound stock solution (concentration: 10 mM, dissolved in DMSO) was diluted with DMSO to 0.2 mM and then diluted with DMSO in 5-fold gradient to obtain compound solutions with 10 concentrations. Subsequently, the compound solutions with different concentrations were diluted 50-fold in 1×kinase reaction buffer (containing 40 mM Tris, 20 mM MgCl2, 0.1% BSA and 0.5 mM DTT) for later use. AAK1 (Signalchem, Cat #A01-11G-10) was diluted with 1×kinase reaction buffer to 2-fold the final concentration (final concentrations: 30 nM and 28 nM). AAK1 was added to a 384-well white plate at 2 μL/well, and the compounds were then added at 1 μL/well. The plate was sealed with a plate-sealing film, centrifuged at 1000 rpm for 30 seconds and then placed at room temperature for 10 minutes. A mixed solution of ATP (Promega, Cat #V914B) and substrate Micro2 (GenScript, Cat #PE0890) was formulated at 4-fold the final concentration (for AAK1, the corresponding final concentrations of ATP: 15 μM and 5 μM, and the corresponding final concentration of Micro2: 0.1 mg/mL). To the reaction plate was added the mixed solution of ATP and the substrate at 1 μL/well.

AP2-associated protein kinase 1, sequence (Q2M2I8 whole entry): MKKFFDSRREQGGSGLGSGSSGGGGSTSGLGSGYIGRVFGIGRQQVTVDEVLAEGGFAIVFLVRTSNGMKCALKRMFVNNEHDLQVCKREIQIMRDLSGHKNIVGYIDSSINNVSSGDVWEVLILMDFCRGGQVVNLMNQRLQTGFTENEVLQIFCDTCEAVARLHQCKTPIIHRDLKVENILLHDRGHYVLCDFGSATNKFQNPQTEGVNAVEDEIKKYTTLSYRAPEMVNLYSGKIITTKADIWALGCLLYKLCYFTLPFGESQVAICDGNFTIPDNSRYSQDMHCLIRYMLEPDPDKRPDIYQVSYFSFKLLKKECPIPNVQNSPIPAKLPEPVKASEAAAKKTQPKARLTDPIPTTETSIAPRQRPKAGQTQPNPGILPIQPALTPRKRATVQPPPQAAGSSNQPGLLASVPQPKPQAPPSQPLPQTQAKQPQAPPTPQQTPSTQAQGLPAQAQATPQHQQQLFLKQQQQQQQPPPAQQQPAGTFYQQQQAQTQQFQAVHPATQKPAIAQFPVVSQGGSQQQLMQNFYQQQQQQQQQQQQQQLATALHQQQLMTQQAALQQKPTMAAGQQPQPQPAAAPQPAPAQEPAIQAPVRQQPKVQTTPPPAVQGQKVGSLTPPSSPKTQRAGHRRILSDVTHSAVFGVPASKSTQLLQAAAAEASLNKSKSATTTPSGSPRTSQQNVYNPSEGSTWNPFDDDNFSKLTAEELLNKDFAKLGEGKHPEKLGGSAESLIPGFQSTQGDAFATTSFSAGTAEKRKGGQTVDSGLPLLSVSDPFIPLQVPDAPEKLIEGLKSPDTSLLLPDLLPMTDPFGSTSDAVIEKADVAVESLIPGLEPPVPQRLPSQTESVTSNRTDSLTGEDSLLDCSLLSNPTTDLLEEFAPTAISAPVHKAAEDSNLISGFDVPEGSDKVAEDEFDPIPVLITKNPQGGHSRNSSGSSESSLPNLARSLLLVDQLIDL

## C=C(C)C[C@](C)(N)COc1cnc(-c2ccnc(NC(=O)OC)c2)cc1C(F)F [US20240343720, Compound 11]
  IC50: 5.74 nM
